Data reported in patent publication US12404304B1, “Telomerase reverse transcriptase (TERT) expression enhancing compounds and methods for using the same” (Sierra Sciences, LLC, priority 2007, dated 2025).
Read-outs that look alike come from different tables or passages of the source.

How the values were obtained:
[1] = test system: human TERT expression (hTERT mRNA); experiment: Quantitative real-time RT-PCR of hTERT mRNA expression (Ct, transcripts) in compound-treated cells; type: cell-based
From the text: Telomerase is a ribonucleoprotein complex composed of the catalytic protein subunit (human telomerase reverse transcriptase or hTERT) and the RNA template. hTERT expression level can be measured by PCR.
Briefly, amplification of the target sequence is monitored per PCR cycle by detecting the fluorescence signal emitted by an internal probe that is degraded by the 5′ nuclease activity of the Taq polymerase. The emission signal accumulates in each sample, and the Ct required to reach a given fluorescence threshold is determined (Ct stands for Cycle Threshold and is a measure of the number of PCR cycles that are required to amplify a target—thus, a lower Ct score means that there is more abundant hTERT mRNA). Thus, the Ct value of a sample inversely correlates to the quantity of the starting cDNA which correlates to the number of mRNA transcripts. Using the cDNA of known quantity, a standard curve can be generated and used to determine the starting amount of mRNA transcripts based on the […] of each sample.
Quantitative real-time PCR can be done on cDNA from test compound-treated and nontreated cells by use of a ABI Prism 7900 Sequence Detection System (PE Applied Biosystems, Foster City, CA) following the Assays-on-Demand protocol (PE Applied Biosystems, Foster City, CA). Quantitative data can be analyzed using the Sequence Detection System software version 2.1 (PE Applied Biosystems).
The following compounds were tested in assays designed to identify compounds that enhance human TERT expression.

viable cells in culture = experiment: Cell viability assay (CellTiter-Glo Luminescent Cell Viability Assay, ATP quantitation, percent of vehicle control)

SMILES | Average Number of hTERT Transcripts [1] | Average Cell Viability after 24 Hours (% DMSO) (viable cells in culture) | Average Number of hTERT Transcripts ([1]; quantitative real-time RT-PCR)
O=C(NCCCN1CCCC1=O)c1cc(-c2cccs2)on1 [compound 1518] | 302.69 | 104.12 | –
Cc1ccc(N2CC(C(=O)N3CC(C)CC(C)C3)CC2=O)c(C)c1 (centres unmarked) [compound 1364] | – | 104.57 | 9.06
Cn1c(SCC(=O)N/N=C/c2sc3ccccc3c2O)nc2ccccc21 [compound 1292] | – | 69.51 | 39.11
CCOC(=O)N1CCN(C(=O)CCc2ccc(S(=O)(=O)NCCc3ccccc3)cc2)CC1 [compound 1441] | 5.06 | 101.03 | –
O=C(CSc1nc2ccccc2c(=O)n1-c1ccc(Cl)cc1)Nc1cccc(Cl)c1 [compound 1401] | 7.24 | 96.20 | –
COc1ccc(C2CC(=O)C3=C(C2)Nc2ccccc2N(C(=O)CCC(=O)O)C3c2cccnc2)cc1OC (centres unmarked) [compound 1406] | 4.62 | 105.29 | –
COc1ccc(-c2cc3ccccn3c2C)cc1 [compound 1322] | – | 81.69 | 20.10
CCn1c(=S)[nH]c2scc(-c3ccc(OC)cc3)c2c1=O [compound 1394] | 7.00 | 100.14 | –
COC(=O)c1sc(NC(=S)NCc2cccnc2)c(C(=O)OC)c1C [compound 1440] | 13.85 | 99.11 | –
CC1=NN(C(=O)c2cc(Br)ccc2O)C(O)(c2ccccc2)C1 (centres unmarked) [compound 1319] | – | 61.93 | 15.04
Cc1cccc(NC(=O)CSc2nnc(CNC(=O)c3ccc(Br)cc3)n2C)c1 [compound 1427] | 5.16 | 107.40 | –
COc1ccc(C2=NN(c3nc4ccccc4s3)C(=O)C2)cc1 [compound 1107] | – | 98.68 | 67.06
C=CCNC(=O)c1cc(-c2ccc(F)cc2)on1 [compound 1182] | – | 87.44 | 19.03
CCc1cc(=O)oc2c(C)c(OC(=O)c3ccccc3)ccc12 [compound 1310] | – | 105.11 | 5.00
Cc1ccc(-c2cc(O)n(-c3nc4ccccc4[nH]3)n2)cc1 [compound 1120] | – | 52.50 | 118.82
CCC(Nc1ccc(Br)cc1)C(=O)N/N=C/c1c(O)ccc2ccccc12 (centres unmarked) [compound 1281] | – | 56.81 | 8.35
c1ccc(-n2ncc3c2-c2[nH]c4ccccc4c2CC3)cc1 [compound 1474] | 17.37 | 80.47 | –
CN(C)S(=O)(=O)c1ccc(C(=O)Nc2nc(-c3ccccn3)cs2)cc1 [compound 1504] | 40.27 | 76.43 | –
Cc1nc(-n2nc(C)c(CCC(=O)Nc3ccc(Br)cc3)c2O)sc1C [compound 1139] | – | 74.45 | 19.61
CCOC(=O)c1nn(-c2ccc(Cl)cc2)c(=O)c2c(NC(=O)c3ccc(F)cc3)scc12 [compound 1300] | – | 62.52 | 6.98
COc1cc(CCNC(=O)c2cc(-c3cccs3)on2)ccc1O [compound 1520] | 322.93 | 98.51 | –
COc1cc(OC)cc(C(=O)Nc2nc(-c3ccccn3)cs2)c1 [compound 1172] | – | 88.81 | 28.72
